Laboratory results: patent US10251408B2, “Catechin function enhancement method” (KYUSHU UNIVERSITY, NATIONAL UNIVERSITY CORPORATION, priority 2014, dated 2019)

Legend:
[1] = system: low density lipoprotein receptor (LDLR); experiment: Liver LDLR mRNA by real-time PCR in HF/HS diet-fed mice; type: in vivo, mouse; conditions: HF/HS diet-fed C57BL/6J mice; Yabukita 0.2% and/or eriodictyol 0.45 g/kg diet; 8 weeks; FIG. 6
From the text: (§1) Male C57BL/6J mice at 12 weeks of age were preliminarily kept for 1 week and then divided into 5 groups such that the average body weight was equal in all groups, i.e., a control (AIN-93G-based diet) group, a HF/HS (high-fat high-sucrose diet) group, a Yabukita (0.2%) (HF/HS+Yabukita) group, an eriodictyol (HF/HS+eriodictyol) group, and a Yabukita+eriodictyol (HF/HS+Yabukita+eriodictyol) group. A feed supplemented with Yabukita (0.2%) and eriodictyol (0.45 g/kg diet) was given to the mice. The feed was given in an amount of 4 g/day and the mice were kept for 8 weeks under ad libitum drinking conditions. After being fasted for 16 hours, the mice were sacrificed by abdominal aortic puncture under isoflurane anesthesia. […] Yabukita and eriodictyol were examined for their effect on cholesterol metabolism-related gene expression in the liver of high-fat high-sucrose diet-fed obese model mice. C57BL/6J mice were preliminarily kept for 1 week and then divided into the respective groups such that the average body weight was equal in all groups. Each feed was given in an amount of 4 g/day and the mice were kept for 8 weeks under ad libitum drinking conditions. After being fasted for 16 hours, the mice were sacrificed by abdominal aortic puncture under isoflurane anesthesia.

[2] = system: high-fat high-sucrose diet-fed obese model mice; experiment: High-fat high-sucrose diet-fed mice: body weight, serum total cholesterol, LDL; type: in vivo, mouse; conditions: C57BL/6J mice, Yabukita 0.2% and/or eriodictyol 0.45 g/kg diet, 8 weeks, FIG. 5
From the text: (§2) Male C57BL/6J mice at 12 weeks of age were preliminarily kept for 1 week and then divided into 5 groups such that the average body weight was equal in all groups, i.e., a control (AIN-93G-based diet) group, a HF/HS (high-fat high-sucrose diet) group, a Yabukita (0.2%) (HF/HS+Yabukita) group, an eriodictyol (HF/HS+eriodictyol) group, and a Yabukita+eriodictyol (HF/HS+Yabukita+eriodictyol) group. A feed supplemented with Yabukita (0.2%) and eriodictyol (0.45 g/kg diet) was given to the mice. The feed was given in an amount of 4 g/day and the mice were kept for 8 weeks under ad libitum drinking conditions. After being fasted for 16 hours, the mice were sacrificed by abdominal aortic puncture under isoflurane anesthesia. The collected blood samples were allowed to stand at 37° C. for 2 hours to cause coagulation and then centrifuged at 4° C. at 2000×g for 15 minutes to collect serum fractions. The values of serum total cholesterol and LDL were measured. […] Yabukita and eriodictyol were examined for their effect on obesity in high-fat high-sucrose diet-fed obese model mice. Male C57BL/6J mice at 12 weeks of age were preliminarily kept for 1 week and then divided into the respective groups such that the average body weight was equal in all groups. Each feed was given in an amount of 4 g/day and the mice were kept for 8 weeks under ad libitum drinking conditions. After being measured for their body weight, the mice were fasted for 16 hours and then sacrificed by abdominal aortic puncture under isoflurane anesthesia. Blood samples collected by puncture were allowed to stand at 37° C. for 2 hours to cause coagulation and then centrifuged at 4° C. at 2000×g for 15 minutes to collect serum fractions. The values of serum total cholesterol and LDL were measured.

[3] = system: caspase-3; experiment: Caspase-3 activation in MPC-11 tumor sections (immunohistological staining); type: in vivo, mouse; conditions: MPC-11-implanted balb/c mice; EGCG 15 mg/kg i.p. and eriodictyol 15 mg/kg i.p.; after 6 hours; FIG. 13
Experimental: After female balb/c mice at 5 weeks of age were preliminarily kept for 2 weeks, a cell suspension of mouse multiple myeloma cell line MPC-11 suspended at 5×10^6 cells/mL in RPMI medium was implanted by subcutaneous injection in a volume of 200 μL into the right dorsal region of each mouse. At 11 days after implantation, the mice were administered […] with EGCG (15 mg/kg i.p.) and eriodictyol (15 mg/kg i.p.) and then sacrificed after 6 hours. Tumors were excised and tissue sections were prepared therefrom, followed by immunohistological staining to determine the number of cells where caspase-3 was activated. To examine the effect of eriodictyol on EGCG-induced activation of caspase-3 indicative of 67LR-dependent cancer cell death induction mechanism activity, female balb/c mice at 5 weeks of age were implanted with mouse multiple myeloma cell line MPC-11 by subcutaneous injection. At 11 days after implantation, the mice were administered with EGCG (15 mg/kg i.p.) and eriodictyol (15 mg/kg i.p.) and then sacrificed after 6 hours. Tissue sections were prepared from the excised tumors and evaluated for the activation state of caspase-3.

[4] = system: Human multiple myeloma cell line U266; experiment: Anticancer effect, viable cells by trypan blue assay (24-well plates, FIG. 14-19); type: cell-based; conditions: 5 μM each, 96 hours
Experimental: Human multiple myeloma cell line U266 was subcultured and maintained in RPMI 1640 medium supplemented with 10% fetal bovine serum (FCS) under conditions of 37° C. and water vapor-saturated 5% CO2. The cells were maintained in the logarithmic growth phase. The RPMI 1640 medium used for culture was prepared as follows: per liter of ultrapure water, RPMI 1640 medium (10.4 g), HEPES (2.38 g), injectable penicillin G potassium (100,000 units), streptomycin sulfate injectable (100 mg) and NaHCO3 (2.0 g) were suspended and then filter-sterilized. Then, the RPMI 1640 medium was supplemented with FCS and used for cell culture. Per liter of ultrapure water, NaCl (8.0 g), KCl (0.2 g), Na2HPO4 (1.15 g) and KH2PO4 (0.2 g) were dissolved to prepare PBS, which was then sterilized in an autoclave.
Eriodictyol and structural analogs thereof, i.e., naringenin and hesperetin, as well as glycosides thereof, i.e., eriocitrin, naringin and hesperidin were each adjusted to 5 mM with 100% dimethyl sulfoxide (DMSO) and stored at −30° C. EGCG and (−)-gallocatechin gallate (GCG) were each adjusted to 5 mM with ultrapure water and stored at −30° C. EGCG 3″Me was adjusted to 5 mM with 10% DMSO dH2O and stored at −30° C.
U266 adjusted to 5×10^4 cells/mL in RPMI 1640 containing 1% FCS, SOD (5 U/mL) and catalase (200 U/mL) was seeded in 24-well plates and cultured for 96 hours in the presence of EGCG and analogs thereof or eriodictyol and analogs thereof added at a final concentration of 5 μM each. After culture, viable cells were counted by trypan blue assay.
For statistical processing of the experimental results, Student's test was used and P<0.05 was considered statistically significant in comparison with control data in the vehicle group.

[5] = system: 3-hydroxy-3-methyl-glutaryl-CoA reductase (HMGCR); experiment: Liver HMGCR mRNA by real-time PCR in HF/HS diet-fed mice; type: in vivo, mouse; conditions: HF/HS diet-fed C57BL/6J mice; Yabukita 0.2% and/or eriodictyol 0.45 g/kg diet; 8 weeks; FIG. 6
From the text: as §1

[6] = system: MCP-1; experiment: Fat tissue MCP-1 mRNA by real-time PCR in HF/HS diet-fed mice; type: in vivo, mouse; conditions: C57BL/6J mice; Yabukita 0.2% and/or eriodictyol 0.45 g/kg diet; 8 weeks; FIG. 5
From the text: as §2, with “Male C57BL/6J mice at 12 weeks of age were preliminarily kept for 1 week and then divided into the respective groups such that the average body weight was equal in all groups. Each feed was given in an amount of 4 g/day and the mice were kept for 8 weeks under ad libitum drinking conditions.” left out, “Blood samples collected by puncture were allowed to stand at 37° C. for 2 hours to cause coagulation and then centrifuged at 4° C. at 2000×g for 15 minutes to collect serum fractions.” left out

## O=C1C[C@@H](c2ccc(O)c(O)c2)Oc2cc(O)cc(O)c21 [eriodictyol]
[1]
  mRNA expression level of LDLR in the liver: no effect
[2]
  high-fat high-sucrose diet-induced increase in body weight: no effect
  high-fat high-sucrose diet-induced increase in serum cholesterol value: no effect
[2]; serum
  high-fat high-sucrose diet-induced increase in LDL value: no effect
[3]
  effect on EGCG-induced caspase-3 activation in tumors: remarkably enhance the ability of EGCG to induce caspase-3 activation
[4]; combined with EGCG
  enhancement of the anticancer effect (viable cells) of EGCG: remarkably enhance the anticancer effect
[4]; combined with EGCG 3″Me
  enhancement of the anticancer effect (viable cells) of EGCG 3″Me: remarkably enhance the anticancer effect
[4]; combined with GCG (gallocatechin gallate)
  enhancement of the anticancer effect (viable cells) of GCG: remarkably enhance the anticancer effect
[5]
  mRNA expression level of HMGCR in the liver: no effect
[6]
  high-fat high-sucrose diet-induced increase in fat tissue MCP-1 expression level (mRNA): no effect
